From publication PMC10892120, “Design, Synthesis and Biological Assessment of N′-(2-Oxoindolin-3-ylidene)-6-methylimidazo[2,1-b]thiazole-5-carbohydrazides as Potential Anti-Proliferative Agents toward MCF-7 Breast Cancer” (Pharmaceuticals, 2024) come the findings set out here.

In general, IC50 refers to the concentration needed to halve the response being measured.

Common to all, as to format: cell-based
One experiment relates to MCF-7 breast cell line. Put plainly: MTT assay, anti-proliferative activity toward MCF-7. To be noted: Homo sapiens, MCF7. The method, then:
. The developed compounds were evaluated in vitro using the MTT cell viability assay following the published techniques (Supplementary Data, page 42). […]
The 96 well tissue culture plate was seeded with 1 X 10^5 cells / ml (100 ul / well) and cultured at 37 degrees Celsius for 24 hours to form a full monolayer sheet. After forming a confluent sheet of cells, growth medium was decanted from 96 well micro titer plates, the cell monolayer was washed twice with wash media, and two-fold dilutions of the tested sample were prepared in RPMI medium with 2% serum (maintenance medium). In each well, 0.1 ml of each dilution was examined, with three wells serving as controls and receiving only maintenance media.
The plate was incubated at 37 degrees Celsius and then analyzed. Cells were examined for any physical evidence of toxicity, such as partial or total monolayer loss, rounding, shrinkage, or cell granulation. MTT solution (5mg/ml in PBS) was prepared (BIO BASIC CANADA INC), and 20ul MTT solution was added to each well. Shake the MTT into the medium for 5 minutes at 150rpm on a shaking table. Incubate for 4 hours (37°C, 5% CO2) to allow the MTT to be digested. Remove the media. (If required, dry plate on paper towels to remove residue. In 200ul DMSO, resuspend formazan (MTT metabolic product). Shake at 150rpm for 5 minutes to properly mix the formazan into the solvent. At 560nm, measure optical density and subtract background at 620nm. The optical density should be proportional to the number of cells. MCF-7 and MCF-10A cell lines were provided with 10% fetal bovine serum (FBS, Sigma-Aldrich, MO, USA). Data are presented as the mean of the IC50 values ± SD from three different experiments. […]

The test system of another experiment is Bcl-2. As to the kind of experiment: RT-PCR gene expression in treated MCF-7 cells: Bcl-2. Particulars: treated MCF-7 cells vs untreated control MCF-7 (=1). The method, then: The gene expression levels of apoptosis genes in MCF-7 cells were measured using RT-PCR to validate the apoptosis-inducing behaviors of the potent lead compound 6i in MCF-7 cells.
The gene expression levels of apoptosis genes were evaluated in MCF-7 cells using the following approaches in the Supplementary Data, page 43.
Inhibitor solution of each well labeled as “Test Inhibitor”. For the “Positive Control" and “Blank”, add 5 μl of the same solution without inhibitor (Inhibitor buffer). Prepare 3 ml of 1x Kinase Buffer 1 by mixing 600 μl of 5x Kinase Buffer 1 with 2400 μl water. 3 ml of 1x Kinase Buffer 1 is sufficient for 100 reactions. To the wells designated as "Blank", add 20 μl of 1x Kinase Buffer 1.
Thaw VEGFR2 enzyme on ice. Upon first thaw, briefly spin tube containing enzyme to recover full content of the tube. Calculate the amount of VEGFR2 required for the assay and dilute enzyme to 1 ng/μl with 1x Kinase Buffer 1. Store remaining undiluted enzyme in aliquots at -80°C. Note:
VEGFR2 enzyme is sensitive to freeze/thaw cycles. Avoid multiple freeze/thaw cycles. […]
use thawed aliquots or diluted enzyme. […]
thoroughly, and then centrifuge at 4°C to collect contents to the bottom of the tube. […] Preparation of a reaction cocktail is crucial in quantitative PCR applications to reduce pipetting errors and maximize assay precision and accuracy. […]

In the next experiment the test system is MCF-7. As to the kind of experiment: Cell cycle analysis (propidium iodide flow cytometry) in MCF-7. To be noted: MCF-7 cell cycle distribution. How it is done:
Compound 6i arrested cells in the G2/M phase with %G2/M = 27.07, compared with %G2/M = 11.31 for the control MCF-7 (Table 5 and Figure 4).
These were performed using the approach described in the Supplementary Data, page 44 [46]. […]
thoroughly, and then centrifuge at 4°C to collect contents to the bottom of the tube. Chill on ice before using. Centrifuge again briefly at 4°C if needed. Preparation of a reaction cocktail is crucial in quantitative PCR applications to reduce pipetting errors and maximize assay precision and accuracy. Assemble the reaction cocktail with all required components except sample template (total RNA) and dispense equal aliquots into each reaction tube. Add target sample to each reaction as the final step. Addition of sample as 5–10 μl volumes will improve assay precision. Replicate samples should be assembled as a master mix with a single addition of sample template.
Cell cycle analysis and apoptosis
Transfer the previously prepared cells from 4 °C to the bench-top and equilibrate to room temperature. Gently re-suspend cells by inverting the tube or by gentleup and down pipetting.
There may be visible thin salt crystals in the tube but this will not affect the sedimentation of the cells in the next step. Pellet the cells at 500 x g for 5 minutes. Carefully aspirate the supernatant without disrupting the pellet. It is better to incompletely remove the supernatant than to accidently aspirate part of the pellet and lose cells. Wash the cells by gently resuspending in 1 mL 1X PBS.
Again, pellet the cells at 500 x g for 5 minutes and carefully remove the supernatant. Gently resuspend the cell pellet in 200 μL 1X Propidium Iodide + RNase Staining Solution. Then ensure that the cells are fully resuspended. Incubate at 37 °C in the dark for 20 – 30 minutes. Place tubes on ice (still in the dark) and prepare for flow cytometry analysis. Gently resuspend cells that settled during the incubation by pipetting up and down. If desired, pass cells through an appropriate filter (not provided) to remove cell aggregates. […] Collect Propidium iodide fluorescence in FL2. […]
A general note: Flow cytometry measures light scatter and fluorescence of single cells or particles in a stream.

In the experiment with MCF-7 breast cell line, `CCCCN1C(=O)C(=NNC(=O)c2c(C)nc3sccn23)c2ccccc21` [Compound 6i, N′-(1-Butyl-2-oxoindolin-3-ylidene)-6-methylimidazo[2,1-b]thiazole-5-carbohydrazide] came in with an IC50 of 8.38 ± 0.62 µM. Moreover, the “RT-PCR Fold Change Bcl-2” value in the experiment with Bcl-2 worked out at 0.359 fold. The “%G2/M” value in the experiment with MCF-7 (control 11.31) is listed as 27.07%. Further, the “%S” value in the experiment on MCF-7 (control 23.96) came out at 19.27%. Further, the “%G0–G1” value in the experiment on MCF-7 (control 64.73) worked out at 53.66%.
